Data on 13 compounds can be found in EPA's ToxValDB 9.5 (doi:10.2903/j.efsa.2016.4569).

As a reminder, the NOAEL is the highest tested level that showed no adverse finding.

In brackets after ≈: the same amount, converted by molar mass. A value given as a limit tells only on which side of the number the result lay.

Data set [1] deals with Rattus norvegicus. The note with it: for LD50: acute, mortality.
The test system of data set [2] is Tagia sp. The note with it: for LC50: acute, mortality; for NOEC: chronic/long-term, reproduction.
For data set [3], the system named is Oncorhynchus mykiss. The note with it: acute; duration: 96 hours; mortality.
For data set [4], the system named is Apis mellifera. The note with it: acute, mortality.
For data set [5], the system named is Folsomia candida. The settings on record: chronic/long-term; reproduction.
In data set [6] the test system is Colinus virginianus.
Data set [7] deals with Oryctolagus sp. The settings on record: chronic; other.
The subject of data set [8] is Daphnia magna. The settings on record: chronic/long-term; duration: 21 days; reproduction.
Data set [9] has as its system Lepomis macrochirus. The settings on record: chronic/long-term; other.
The subject of data set [10] is Aphidius rhopalosiphi. Put plainly: LR50; higher = less toxic. The note with it: not reported; mortality.
Setting [11] is: short-term, duration: 28 days, M.

In data set [1] (setting [11]), `Cc1nn(-c2cc(CC(C(=O)O)S(=O)(=O)O)c(Cl)cc2F)c(=O)n1C(F)F` (stereo not drawn) [F8426-alpha-Sulfodeschloropropionic acid] yielded an NOAEL of 0.359 mg/kg-day. The LC50 in data set [2] is > 100 mg/kg; in data set [3], > 100 µg/mL.

For the compound `CCOC(=O)C(Cl)Cc1cc(-n2nc(C)n(C(F)F)c2=O)c(F)cc1Cl` (configuration not stated) [Carfentrazone-ethyl], the LD50 was > 81 µg/piece in data set [4] (dermal); > 81 µg/piece in data set [4] (oral, unspecified); > 5140 mg/kg-day in data set [1] (F); > 5000 mg/kg in data set [1] (oral, M); > 2250 mg/kg-day in data set [6] (acute, oral, mortality). The no observed adverse effect level (NOAEL) in [1] (subchronic, duration: 90 days, oral, hematological) came out at 58 mg/kg-day; in data set [7], 40 mg/kg-day. Also, the NOEC in data set [5] is 0.975 mg/kg; in [6] (chronic) it was 94 mg/kg-day; in [8], 0.22 mg/L; in [2] it was 8 mg/kg; in [9], 0.0187 mg/L. In addition, the LC50 in data set [2] is > 410 mg/kg; in data set [3], 1.6 µg/mL (≈ 3.88 µM). The same compound registered an LR50 in data set [10] of 23.5 g/ha.

`O=C(O)c1cc(-n2nc(C(=O)O)n(C(F)F)c2=O)c(F)cc1Cl` [F8426-dicarboxylic acid] gave an NOAEL in data set [1] (setting [11]) of 12.1 mg/kg-day. In [2], the NOEC turned out to be 0.152 mg/kg. Moreover, in data set [3], the LC50 is > 100 µg/mL.

For the compound `Cc1nn(-c2cc(C(=O)O)c(Cl)cc2F)c(=O)n1C(F)F`, the NOAEL in data set [1] (setting [11]) was determined as 5.4 mg/kg-day. Besides, the LC50 in data set [2] was > 1000 mg/kg; in [3] it was > 92.5 µg/mL.

With `O=C(O)c1cc(-n2ncn(C(F)F)c2=O)c(F)cc1Cl` [3-Desmethyl-F8426-benzoic acid], in [1] (setting [11]), the NOAEL was 5.4 mg/kg-day.

Turning to `O=C(O)CCc1cc(-n2nc(CO)n(C(F)F)c2=O)c(F)cc1Cl` [3-Hydroxymethyl-F8426-propionic acid], the NOAEL in [1] (setting [11]) came out at 1.4 mg/kg-day.

Consider `COc1cc(-n2nc(C)n(C(F)F)c2=O)c(F)cc1Cl`, for which the NOAEL in data set [1] (setting [11]) was 8.5 mg/kg-day. Further, in data set [2], the NOEC was 0.256 mg/kg. Moreover, the LC50 in data set [3] was > 20.9 µg/mL.

`Cc1n[nH]c(=O)n1C(F)F` yielded a no-observed-adverse-effect level (NOAEL) in [1] (subchronic, duration: 90 days, M) of 0.666 mg/kg-day. The LC50 in data set [2] was > 100 mg/kg; in data set [3] it was > 100 µg/mL.

`Cc1nn(-c2cc(CCC(=O)O)c(Cl)cc2F)c(=O)n1C(F)F` displayed an NOAEL in data set [1] (short-term, M) of 1.4 mg/kg-day. Further, the LC50 in [2] is > 1000 mg/kg.

As to `O=C(O)CCc1cc(-n2ncn(C(F)F)c2=O)c(F)cc1Cl` [3-Desmethyl-F8426-propionic acid], the no observed adverse effect level (NOAEL) in data set [1] (short-term, M) is 1.4 mg/kg-day.

For the compound `Cc1nn(-c2cc(CC(Cl)C(=O)O)c(Cl)cc2F)c(=O)n1C(F)F` (configuration not stated) [Carfentrazone], the LC50 was > 1000 mg/kg in data set [2] and > 99.2 µg/mL in data set [3].

Consider `Cc1nn(-c2cc(C=CC(=O)O)c(Cl)cc2F)c(=O)n1C(F)F`, for which, in data set [1] (setting [11]), the NOAEL is 1 mg/kg-day. In data set [2], the LC50 was > 500 mg/kg.

For the compound `O=C(O)c1cc(-n2nc(CO)n(C(F)F)c2=O)c(F)cc1Cl`, in data set [1] (setting [11]), the NOAEL turned out to be 10.1 mg/kg-day. Further, the NOEC in data set [2] came out at 0.056 mg/kg. Besides, the LC50 in data set [3] is > 100 µg/mL.
